Experimental data taken from patent US20260027116A1, “Methods of Treating Chronic Graft-Versus-Host Disease Following Allogeneic Hematopoietic Stem Cell Transplantation” (Kadmon Corporation, LLC, priority 2022, published 2026).

Test system: patients with cGVHD
Settings: Cohort 2 200 mg BID

Structure (SMILES): CC(C)NC(=O)COc1cccc(-c2nc(Nc3ccc4[nH]ncc4c3)c3ccccc3n2)c1 [Belumosudil, 2-{3-[4-(1H-indazol-5-ylamino)-2-quinazolinyl]phenoxy}-N-(propan-2-yl) acetamide]
- Bronchoscopy: # Events: 0
- Bronchoscopy: Affected/At Risk (%): 0/16 (0%)
- Catheter site haemorrhage: # Events: 0
- Catheter site haemorrhage: Affected/At Risk (%): 0/16 (0%)
- Chills: # Events: 1
- Chills: Affected/At Risk (%): 1/16 (6.25%)
- Chronic kidney disease: # Events: 0
- Chronic kidney disease: Affected/At Risk (%): 0/16 (0%)
- Conjunctival haemorrhage: # Events: 1
- Conjunctival haemorrhage: Affected/At Risk (%): 1/16 (6.25%)
- Conjunctivitis: # Events: 1
- Conjunctivitis: Affected/At Risk (%): 1/16 (6.25%)
- Constipation: # Events: 1
- Constipation: Affected/At Risk (%): 1/16 (6.25%)
- Contrast media allergy: # Events: 2
- Contrast media allergy: Affected/At Risk (%): 2/16 (12.5%)
- Contusion: # Events: 2
- Contusion: Affected/At Risk (%): 2/16 (12.5%)
- Corneal abrasion: # Events: 0
- Corneal abrasion: Affected/At Risk (%): 0/16 (0%)
- Corneal infection: # Events: 2
- Corneal infection: Affected/At Risk (%): 1/16 (6.25%)
- Cough: # Events: 5
- Cough: Affected/At Risk (%): 4/16 (25%)
- Death, No. (%): 0
- Decreased appetite: # Events: 2
- Decreased appetite: Affected/At Risk (%): 2/16 (12.5%)
- Dehydration: # Events: 4
- Dehydration: Affected/At Risk (%): 3/16 (18.75%)
- Depression: # Events: 4
- Depression: Affected/At Risk (%): 4/16 (25%)
- Diarrhoea: # Events: 10
- Diarrhoea: Affected/At Risk (%): 5/16 (31.25%)
- Dizziness: # Events: 4
- Dizziness: Affected/At Risk (%): 1/16 (6.25%)
- Drug eruption: # Events: 1
- Drug eruption: Affected/At Risk (%): 1/16 (6.25%)
- Drug-related AE, No. (%): 8 (50)
- Drug-related SAE, No. (%): 0
- Dry eye: # Events: 4
- Dry eye: Affected/At Risk (%): 4/16 (25%)
- Dry skin: # Events: 0
- Dry skin: Affected/At Risk (%): 0/16 (0%)
- Dyspepsia: # Events: 2
- Dyspepsia: Affected/At Risk (%): 2/16 (12.5%)
- Dysphagia: # Events: 4
- Dysphagia: Affected/At Risk (%): 3/16 (18.75%)
- Dyspnoea exertional: # Events: 0
- Dyspnoea exertional: Affected/At Risk (%): 0/16 (0%)
- Dyspnoea: # Events: 7
- Dyspnoea: Affected/At Risk (%): 5/16 (31.25%)
- Embolism: # Events: 0
- Embolism: Affected/At Risk (%): 0/16 (0%)
- Enamel anomaly: # Events: 1
- Enamel anomaly: Affected/At Risk (%): 1/16 (6.25%)
- Epidural lipomatosis: # Events: 0
- Epidural lipomatosis: Affected/At Risk (%): 0/16 (0%)
- Epstein-Barr virus infection: # Events: 0
- Epstein-Barr virus infection: Affected/At Risk (%): 0/16 (0%)
- Erectile dysfunction: # Events: 0
- Erectile dysfunction: Affected/At Risk (%): 0/16 (0%)
- Eye irritation: # Events: 0
- Eye irritation: Affected/At Risk (%): 0/16 (0%)
- Eye pain: # Events: 4
- Eye pain: Affected/At Risk (%): 2/16 (12.5%)
- Eye pruritus: # Events: 1
- Eye pruritus: Affected/At Risk (%): 1/16 (6.25%)
- Fall: # Events: 1
- Fall: Affected/At Risk (%): 1/16 (6.25%)
- Fatigue: # Events: 7
- Fatigue: Affected/At Risk (%): 3/16 (18.75%)
- Flatulence: # Events: 2
- Flatulence: Affected/At Risk (%): 1/16 (6.25%)
- Flushing: # Events: 1
- Flushing: Affected/At Risk (%): 1/16 (6.25%)
- Fungal infection: # Events: 0
- Fungal infection: Affected/At Risk (%): 0/16 (0%)
- Gamma-glutamyltransferase increased: # Events: 4
- Gamma-glutamyltransferase increased: Affected/At Risk (%): 4/16 (25%)
- Gastric ulcer: # Events: 1
- Gastric ulcer: Affected/At Risk (%): 1/16 (6.25%)
- Gastrooesophageal reflux disease: # Events: 1
- Gastrooesophageal reflux disease: Affected/At Risk (%): 1/16 (6.25%)
- Generalised oedema: # Events: 0
- Generalised oedema: Affected/At Risk (%): 0/16 (0%)
- Genital infection fungal: # Events: 1
- Genital infection fungal: Affected/At Risk (%): 1/16 (6.25%)
- Glaucoma: # Events: 1
- Glucose urine present: # Events: 0
- Glucose urine present: Affected/At Risk (%): 0/16 (0%)
- Grade ≥3 AE, No. (%): 10 (63)
- Grade ≥3 ALT/AST increased, No. (%): 2 (13)
- Grade ≥3 Anemia, No. (%): 1 (6)
- Grade ≥3 Dyspnea, No. (%): 2 (13)
- Grade ≥3 Hyperglycemia, No. (%): 0
- Grade ≥3 Hypoxia, No. (%): 1 (6)
- Grade ≥3 Lung infection or pneumonia, No. (%): 2 (13)
- Graft versus host disease in gastrointestinal tract: # Events: 0
- Graft versus host disease in gastrointestinal tract: Affected/At Risk (%): 0/16 (0%)
- Gynaecomastia: # Events: 1
- Gynaecomastia: Affected/At Risk (%): 1/16 (6.25%)
- Haematuria: # Events: 1
- Haematuria: Affected/At Risk (%): 1/16 (6.25%)
- Hair growth abnormal: # Events: 0
- Hair growth abnormal: Affected/At Risk (%): 0/16 (0%)
- Headache: # Events: 3
- Headache: Affected/At Risk (%): 3/16 (18.75%)
- Hodgkin's disease recurrent: # Events: 0
- Hodgkin's disease recurrent: Affected/At Risk (%): 0/16 (0%)
- Hordeolum: # Events: 0
- Hordeolum: Affected/At Risk (%): 0/16 (0%)
- Hot flush: # Events: 0
- Hot flush: Affected/At Risk (%): 0/16 (0%)
- Hyperglycemia: # Events: 0
- Hyperglycemia: Affected/At Risk (%): 0/16 (0%)
- Hyperhidrosis: # Events: 1
- Hyperhidrosis: Affected/At Risk (%): 1/16 (6.25%)
- Hyperkalaemia: # Events: 2
- Hyperkalaemia: Affected/At Risk (%): 2/16 (12.5%)
- Hypertension: # Events: 5
- Hypertension: Affected/At Risk (%): 2/16 (12.5%)
- Hyperthyroidism: # Events: 1
- Hyperthyroidism: Affected/At Risk (%): 1/16 (6.25%)
- Hypertriglyceridaemia: # Events: 1
- Hypertriglyceridaemia: Affected/At Risk (%): 1/16 (6.25%)
- Hyperuricaemia: # Events: 2
- Hyperuricaemia: Affected/At Risk (%): 1/16 (6.25%)
- Hypoaesthesia: # Events: 0
- Hypoaesthesia: Affected/At Risk (%): 0/16 (0%)
- Hypocalcaemia: # Events: 4
- Hypocalcaemia: Affected/At Risk (%): 1/16 (6.25%)
- Hypogonadism: # Events: 0
- Hypogonadism: Affected/At Risk (%): 0/16 (0%)
- Hypokalaemia: # Events: 3
- Hypokalaemia: Affected/At Risk (%): 2/16 (12.5%)
- Hypomagnesaemia: # Events: 1
- Hypomagnesaemia: Affected/At Risk (%): 1/16 (6.25%)
- Hyponatraemia: # Events: 0
- Hyponatraemia: Affected/At Risk (%): 0/16 (0%)
- Hypophosphataemia: # Events: 1
- Hypophosphataemia: Affected/At Risk (%): 1/16 (6.25%)
- Hypothermia: # Events: 1
- Hypothermia: Affected/At Risk (%): 1/16 (6.25%)
- Hypothyroidism: # Events: 2
- Hypothyroidism: Affected/At Risk (%): 1/16 (6.25%)
- Hypoxia: # Events: 5
- Hypoxia: Affected/At Risk (%): 2/16 (12.5%)
- Impaired healing: # Events: 0
- Impaired healing: Affected/At Risk (%): 0/16 (0%)
- Influenza like illness: # Events: 2
- Influenza like illness: Affected/At Risk (%): 1/16 (6.25%)
- Influenza: # Events: 2
- Influenza: Affected/At Risk (%): 1/16 (6.25%)
- Insomnia: # Events: 0
- Insomnia: Affected/At Risk (%): 0/16 (0%)
- Irritability: # Events: 0
- Irritability: Affected/At Risk (%): 0/16 (0%)
- Joint range of motion decreased: # Events: 1
- Joint range of motion decreased: Affected/At Risk (%): 1/16 (6.25%)
- Lacrimation increased: # Events: 1
- Lacrimation increased: Affected/At Risk (%): 1/16 (6.25%)
- Leukaemia recurrent: # Events: 0
- Leukaemia recurrent: Affected/At Risk (%): 0/16 (0%)
- Leukocytosis: # Events: 0
- Leukocytosis: Affected/At Risk (%): 0/16 (0%)
- Ligament sprain: # Events: 0
- Ligament sprain: Affected/At Risk (%): 0/16 (0%)
- Limb injury: # Events: 0
- Limb injury: Affected/At Risk (%): 0/16 (0%)
- Macular degeneration: # Events: 1
